From article PMC8330742, “New benzothieno[2,3-c]pyridines as non-steroidal CYP17 inhibitors: design, synthesis, anticancer screening, apoptosis induction, and in silico ADME profile studies” (Journal of Enzyme Inhibition and Medicinal Chemistry, 2021)

Key:
[1] = tested on: RPMI-8226; test: NCI-60 SRB screen; assay type: cell-based; conditions: RPMI-8226;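 for IC50: half-maximal inhibitory concentration read as cell viability unlike GI50 net growth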
[2] = tested on: SF-539; test: NCI-60 SRB screen; assay type: cell-based, human; conditions: SF-539, five dose;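 for IC50: half-maximal inhibitory concentration read as cell viability unlike GI50 net growth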
[3] = tested on: SNB-19; test: NCI-60 SRB screen; assay type: cell-based; conditions: SNB-19, five dose;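 for IC50: half-maximal inhibitory concentration read as cell viability unlike GI50 net growth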
[4] = tested on: SNB-75; test: NCI-60 SRB screen; assay type: cell-based, human; conditions: SNB-75, five dose;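 for IC50: half-maximal inhibitory concentration read as cell viability unlike GI50 net growth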
[5] = tested on: U251; test: NCI-60 SRB screen; assay type: cell-based, human; conditions: U251, five dose
[6] = tested on: OVCAR-5; test: NCI-60 SRB screen; assay type: cell-based, human; conditions: OVCAR-5
[7] = tested on: OVCAR-8; test: NCI-60 SRB screen; assay type: cell-based, human; conditions: OVCAR-8
[8] = tested on: A498; test: NCI-60 SRB screen; assay type: cell-based, human; conditions: A498
[9] = tested on: PC-3; test: NCI-60 SRB screen; assay type: cell-based, human; conditions: PC-3
[10] = tested on: DU-145; test: NCI-60 SRB screen; assay type: cell-based, human; conditions: DU-145
[11] = tested on: MCF7; test: NCI-60 SRB screen; assay type: cell-based, human
[12] = tested on: MDA-MB-231/ATCC; test: NCI-60 SRB screen; assay type: cell-based, human
[13] = tested on: HS 578 T; test: NCI-60 SRB screen; assay type: cell-based, human; conditions: five dose
[14] = tested on: BT-549; test: NCI-60 SRB screen; assay type: cell-based, human; conditions: BT-549
[15] = tested on: T-47D; test: NCI-60 SRB screen; assay type: cell-based, human
[16] = tested on: MDA-MB-468; test: NCI-60 SRB screen; assay type: cell-based, human; conditions: MDA-MB-468
[17] = tested on: breast cancer cell line (MCF-7); test: MTT cytotoxicity assay; assay type: cell-based, human
Method: (§1) The MTT method for monitoring in vitro cytotoxicity was used with multiwell plates. Three human cell lines, namely prostate cancer cell line (PC-3), renal cancer cell line (UO-31), and breast cancer cell line (MCF-7) were obtained from the American Type Culture Collection ATCC, Manassas, VA, USA). The cells were trypsinized and seeded in 96 well plates with a density of 1.2 − 1.8 × 10,000 cells/well for 24 h at 37 °C. After treating the cells with five concentrations of compound 5c (0.01, 0.1, 1, 10, 100 µM), an MTT solution (Sigma Co., St. Louis, MO, USA) (5 mg/mL in phosphate buffer solution) was applied to each well and […]. The plates were cultivated in 5% CO2 for 4 h at 37 °C. Successively, the remaining formazan crystals were dissolved in 100 µl of DMSO, and the absorbance was determined with the ROBONIK P2000 spectrophotometer at a wavelength of 570 nm. The obtained values were analysed using Gen5 software (BioTek, UK). The proliferation percentage in each treated cell line was standardised based on their control wells. Both tests have been conducted in triplicate. The IC50 values were calculated using sigmoidal dose-response curve fitting models. […] Each test included a blank containing a complete medium without cells.

[18] = tested on: prostate cancer cell line (PC-3); test: MTT cytotoxicity assay; assay type: cell-based, human
Method: as §1

[19] = tested on: renal cancer cell line (UO-31); test: MTT cytotoxicity assay; assay type: cell-based, human
Method: as §1

[20] = tested on: PC-3 cells; test: Annexin V-FITC apoptosis assay; assay type: cell-based, human; conditions: PC-3, 2.34 µM, 24 h
Method: PC-3 cells were placed in a 6-well plate at 1 × 10^5 conc. of cells per well, then incubated for 24 h. Afterward, the cells were treated with 2.34 µM of compound 5c or (0.1% DMSO) for 24 h, then harvested, washed with PBS, and stained with annexin V-FITC and PI in binding buffer ([…], […], and […] at pH 7.4) for 15 min at room temperature in the dark, then analysed by the flow cytometer.

[21] = Homo sapiens, single dose 10^−5 M, read-out: Growth inhibition (%)
[22] = Homo sapiens, MDA-MB-231/ATCC, five dose

With `N#CC1C(=O)NC(c2ccccc2[N+](=O)[O-])c2sc3c(F)cccc3c21` (centres unmarked) [Compound 5c, 4-Cyano-8-fluoro-1-(2-nitrophenyl)-1,2-dihydro[1]benzothieno[2,3-c] pyridin-3(4H)-one] the GI50 ([1]; Homo sapiens, five dose) was 10.6 µM, the IC50 ([1]; Homo sapiens, five dose) was 34.7 µM and the LC50 ([1]; Homo sapiens, five dose) was greater than 100 µM. The inhibition at 10 µM [1, 21] was 58.8%, the TGI ([1]; five dose) was 100 µM and the GI50 ([2]; Homo sapiens) was 23 µM. The IC50 ([2]; Homo sapiens) was 46.8 µM, the TGI [2] was 100 µM and the GI50 ([3]; Homo sapiens) was 24.6 µM. For the same compound, the IC50 ([3]; Homo sapiens) was 44.7 µM, the LC50 ([3]; Homo sapiens) was greater than 100 µM and the TGI [3] was 100 µM. The GI50 ([4]; Homo sapiens) was 6.12 µM, the IC50 ([4]; Homo sapiens) was greater than 100 µM and the TGI [4] was 100 µM. It also gave a GI50 ([5]; Homo sapiens, U-251) of 2.5 µM, an IC50 ([5]; Homo sapiens, U-251) of 12.6 µM and a TGI [5] of 100 µM. It also gave a GI50 ([6]; Homo sapiens, five dose) of 0.73 µM, an IC50 ([6]; Homo sapiens, five dose) of 3.39 µM and an inhibition at 10 µM [6, 21] of 115%. The TGI ([6]; five dose) was 100 µM, the GI50 ([7]; Homo sapiens, five dose) was 12 µM and the IC50 ([7]; Homo sapiens, five dose) was 20.4 µM. For the same compound, the inhibition at 10 µM [7, 21] was 25.1%, the TGI ([7]; five dose) was 100 µM and the TGI ([8]; five dose) was 5.98 µM. For the same compound, the GI50 ([8]; Homo sapiens, five dose) was 1.32 µM, the IC50 ([8]; Homo sapiens, five dose) was 3.09 µM and the inhibition at 10 µM [8, 21] was 161%. For the same compound, the GI50 ([9]; Homo sapiens, five dose) was 13.6 µM, the IC50 ([9]; Homo sapiens, five dose) was 25.1 µM and the inhibition at 10 µM [9, 21] was 20%. For the same compound, the TGI ([9]; five dose) was 100 µM, the TGI ([10]; five dose) was 100 µM and the GI50 ([10]; Homo sapiens, five dose) was 10.5 µM. It also gave an IC50 ([10]; Homo sapiens, five dose) of 19.1 µM, an inhibition at 10 µM [10, 21] of 10.1% and an inhibition at 10 µM ([11]; Homo sapiens, MCF-7, single dose 10^−5 M, read-out: Growth inhibition (%)) of 76.4%. For the same compound, the GI50 ([11]; Homo sapiens, five dose) was 0.26 µM, the IC50 ([11]; Homo sapiens, five dose) was 0.55 µM and the TGI ([11]; five dose) was 10.00 µM. It also gave an inhibition at 10 µM ([12]; Homo sapiens, MDA-MB-231, MDAMB231/ATCC, single dose 10^−5 M, read-out: Growth inhibition (%)) of 24.5%, a GI50 [12, 22] of 11.6 µM and an IC50 [12, 22] of 33.1 µM. It also gave a TGI ([12]; MDA-MB-231/ATCC, five dose) of 100 µM, a GI50 ([13]; Homo sapiens) of 18.1 µM and an IC50 ([13]; Homo sapiens) greater than 100 µM. The TGI [13] was 100 µM, the TGI ([14]; five dose) was 100 µM and the GI50 ([14]; Homo sapiens, five dose) was 16.5 µM. The IC50 ([14]; Homo sapiens, five dose) was 72.4 µM, the inhibition at 10 µM [14, 21] was 10.8% and the GI50 ([15]; Homo sapiens, T47D, five dose) was 0.32 µM. It also gave an IC50 ([15]; Homo sapiens, T47D, five dose) greater than 100 µM, an inhibition at 10 µM ([15]; Homo sapiens, T47D, single dose 10^−5 M, read-out: Growth inhibition (%)) of 97.5% and a TGI ([15]; five dose) of 100 µM. For the same compound, the GI50 ([16]; Homo sapiens, five dose) was 0.15 µM, the IC50 ([16]; Homo sapiens, five dose) was 0.24 µM and the inhibition at 10 µM [16, 21] was 149%. The TGI ([16]; five dose) was 0.65 µM, the “potency compared to staurosporine” value [17] was “half potency” and the “potency compared to staurosporine” value [18] was “higher potency”. The “potency relative to abiraterone” value [18] was “fourfold”, the IC50 ([18]; Homo sapiens) was 2.08 µM and the “potency compared to staurosporine” value [19] was “higher potency”. For the same compound, the “Apoptosis total (% of cells)” value [20] was 42.55%, the “Early apoptosis (% of cells)” value [20] was 1.66% and the “Late apoptosis (% of cells)” value [20] was 26.67%. For the same compound, the “Necrosis (% of cells)” value [20] was 14.22%, the “elevation in necrosis vs control” value [20] was 7.68 fold and the “increase in early apoptotic cells vs control” value [20] was 6.64 fold. The “increase in late apoptotic cells vs control” value [20] was 140.36 fold and the “total increase vs control” value [20] was 18.58 fold.
